Measurements taken from paper PMC9103351, “Effects of the Bark Resin Extract of Garcinia nigrolineata on Chronic Stress-Induced Memory Deficit in Mice Model and the In Vitro Monoamine Oxidases and β-Amyloid Aggregation Inhibitory Activities of Its Prenylated Xanthone Constituents” (Molecules, 2022).
Like-named read-outs stand apart in the source and are kept apart here.

Tests used:
recombinant human MAO-B = target: T1, recombinant human MAO-B (Homo sapiens, UniProt P27338); assay: Inhibitory activity on recombinant human MAO-B (kynuramine, fluorescence); type: biochemical; conditions: for isoenzyme selectivity by selectivity index (MAO-B): from Si values; for IC50: recombinant human MAO-B, kynuramine substrate
T1 construct: purchased Sigma-Aldrich
T1 sequence (P27338 1-520): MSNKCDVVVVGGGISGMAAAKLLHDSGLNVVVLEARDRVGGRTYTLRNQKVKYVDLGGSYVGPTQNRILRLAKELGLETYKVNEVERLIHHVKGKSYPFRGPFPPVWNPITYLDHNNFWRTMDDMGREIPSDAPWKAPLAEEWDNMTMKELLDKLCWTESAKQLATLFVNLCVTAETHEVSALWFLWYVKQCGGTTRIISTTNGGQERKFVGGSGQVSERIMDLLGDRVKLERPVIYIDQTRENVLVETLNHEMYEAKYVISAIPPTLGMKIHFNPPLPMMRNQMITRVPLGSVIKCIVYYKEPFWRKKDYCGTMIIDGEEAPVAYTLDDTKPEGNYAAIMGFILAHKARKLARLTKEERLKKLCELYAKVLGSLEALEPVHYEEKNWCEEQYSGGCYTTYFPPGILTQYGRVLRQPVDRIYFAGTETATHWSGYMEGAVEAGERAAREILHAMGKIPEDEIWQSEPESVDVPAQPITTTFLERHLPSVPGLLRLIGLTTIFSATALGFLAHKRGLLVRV
Protocol: (§1) The inhibitory activity assays of the isolated compound with recombinant human MAO-A and MAO-B (Sigma-Aldrich, St. Louis, MO, USA) were carried out with some modification as described recently by. In brief, 1–6 and 8–10 were first dissolved in DMSO to obtain a stock solution with a concentration of 25 mM. The activity was determined by serial dilution of each concentration of the compounds. For the MAO-A inhibitor assay, 4.5 µL of kynuramine (Sigma-Aldrich, St. Louis, MO, USA) were mixed with 234.75 µL of potassium phosphate buffer (100 mM, pH 7.4, made isotonic with KCl, 20.2 mM). Then, 3 µL of kynuramine were mixed with 236.25 µL of potassium phosphate buffer (pH 7.4) for the MAO-B inhibitor assay. The reaction was stopped by adding 400 µL of 2N NaOH and 1000 µL of water. The fluorescence of 4-hydroxyquinoline (Sigma-Aldrich, St. Louis, MO, USA), a by-product of this reaction, was measured with the excitation wavelength at 310 nm and the emission wavelength at 400 nm. The initial rates of MAO-catalyzed kynuramine oxidation were plotted versus the logarithm of the inhibitor concentrations and reported as IC50 values by using the Prism software package (GraphPad Software, version 5, San Diego, CA, USA) to evaluate quantitative. IC50 values were converted to Ki values by using the equation Ki = IC50/(1 + [S]/Km).

Aβ1-42 = target: T2, Aβ1-42 (Homo sapiens, UniProt P05067); assay: Thioflavin-T assay of Aβ1-42 self-aggregation inhibition; type: biochemical; conditions: for % Inhibition of Aβ Aggregation: Aβ1-42 10 µM, 24 h at 37 °C, Th-T fluorescence; for percent of self-aggregation of Aβ-(1-42): without any compound taken as 100%
T2 construct: Aβ1-42 was dissolved in a 50 mM phosphate buffer (pH 7.4)
T2 sequence (P05067 672-713 limits assumed): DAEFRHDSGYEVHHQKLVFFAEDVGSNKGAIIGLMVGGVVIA
Protocol: A thioflavin-T (Th-T) assay was used to evaluate the ability of 1–6 and 8–10, isolated from GN bark resin extract, to inhibit Aβ42 aggregation. The presence of Aβ plaques in the brain appears to be related to cognitive decline and neurodegeneration.
The Thioflavin-T assay used to investigate the Aβ1-42 self-aggregation activity was performed as previously described. Aβ1-42 was dissolved in a 50 mM phosphate buffer (pH 7.4) to obtain a […] stock solution. […] In black and opaque 96-well plates, 2 µL of each compound were added at a concentration of 100 µM. Then, in each well, Aβ1-42 solution was added to give a final concentration of 10 µM and mixed thoroughly. Covered plates were left in the dark for 24 h at 37 °C without agitation. After incubation, each well was loaded with 190 µL of […] ThT in 50 mM glycine/NaOH buffer (pH 8.0), and fluorescence intensities were measured at 446 nm and 490 nm for excitation and emission, respectively. The percent inhibition of each compound was calculated and reported.

recombinant human MAO-A = target: T3, recombinant human MAO-A (Homo sapiens, UniProt P21397); assay: Inhibitory activity on recombinant human MAO-A (kynuramine, fluorescence); type: biochemical; conditions: for Si MAO-A: selective index from Ki values (Ki = IC50/(1 + [S]/Km)), Si = Ki (MAO-B)/Ki (MAO-A)
T3 construct: purchased Sigma-Aldrich
T3 sequence (P21397 1-527): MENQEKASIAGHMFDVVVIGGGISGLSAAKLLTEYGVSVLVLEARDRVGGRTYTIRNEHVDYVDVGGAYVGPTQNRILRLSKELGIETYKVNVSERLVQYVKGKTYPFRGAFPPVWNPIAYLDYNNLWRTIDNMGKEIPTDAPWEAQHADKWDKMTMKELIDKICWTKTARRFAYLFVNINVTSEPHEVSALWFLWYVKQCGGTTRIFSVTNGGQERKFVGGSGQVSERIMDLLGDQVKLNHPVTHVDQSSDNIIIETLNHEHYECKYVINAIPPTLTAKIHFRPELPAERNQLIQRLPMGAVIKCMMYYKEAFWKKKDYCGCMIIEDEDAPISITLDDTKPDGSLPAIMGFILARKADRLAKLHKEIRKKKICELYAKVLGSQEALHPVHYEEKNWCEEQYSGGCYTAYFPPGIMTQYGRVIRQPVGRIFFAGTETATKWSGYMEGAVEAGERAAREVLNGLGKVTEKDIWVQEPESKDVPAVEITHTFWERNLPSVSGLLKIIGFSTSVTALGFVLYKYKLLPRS
Protocol: as §1

Aβ (1-42) = system: Aβ (1-42); set-up: method as in PMID 27038926; conditions: Aβ (1-42) incubated with compound 6 days at 37 °C; cited from earlier work
[1] = selective index from Ki values (Ki = IC50/(1 + [S]/Km)), Si = Ki (MAO-B)/Ki (MAO-A)
[2] = recombinant human MAO-A, kynuramine substrate, read-out: IC50 MAO-A

Compound: COc1cc2oc3c(OC)c(O)ccc3c(=O)c2c(O)c1CC=C(C)C [Compound 1, cowagarcinone C]
- isoenzyme selectivity by selectivity index (MAO-B) (recombinant human MAO-B): selectivity index on MAO-B
- IC50 (recombinant human MAO-B): 17.99 ± 0.11 µM
- Si MAO-B (recombinant human MAO-B; [1]): 0.294
- % Inhibition of Aβ Aggregation (Aβ1-42; compound 100 µM): 46.79 ± 5.46%
- percent of self-aggregation of Aβ-(1-42) (Aβ1-42; compound 100 µM): 53.21 ± 5.46%
- IC50 (recombinant human MAO-A; [2]): 100.2 ± 0.35 µM
- Si MAO-A (recombinant human MAO-A): 3.407

Compound: COc1cc2c(=O)c3c(O)c(C/C=C(\C)CCC=C(C)C)c(O)cc3oc2cc1O [Compound 2, cowaxanthone]
- IC50 (recombinant human MAO-B): 238.5 ± 2.03 µM
- Si MAO-B (recombinant human MAO-B; [1]): 3.254
- % Inhibition of Aβ Aggregation (Aβ1-42; compound 100 µM): 58.56 ± 3.28%
- percent of self-aggregation of Aβ-(1-42) (Aβ1-42; compound 100 µM): 41.44 ± 3.28%
- IC50 (recombinant human MAO-A; [2]): 119.8 ± 0.75 µM
- Si MAO-A (recombinant human MAO-A): 0.307

Compound: COc1c(O)cc2oc3cc(O)c(CC=C(C)C)c(O)c3c(=O)c2c1CC=C(C)C [Compound 3, α-mangostin]
- isoenzyme selectivity by selectivity index (MAO-B) (recombinant human MAO-B): selectivity index on MAO-B
- IC50 (recombinant human MAO-B): 40.1 ± 0.89 µM
- Si MAO-B (recombinant human MAO-B; [1]): 0.821
- % Inhibition of Aβ Aggregation (Aβ1-42; compound 100 µM): Not detected
- amyloid aggregation inhibition (Aβ (1-42)): inhibiting amyloid aggregation
- IC50 (recombinant human MAO-A; [2]): 79.81 ± 0.5 µM
- Si MAO-A (recombinant human MAO-A): 1.218

Compound: COc1cc2oc3cc(O)c(CC=C(C)C)c(O)c3c(=O)c2c(CC=C(C)C)c1OC [Compound 4, cowaxanthone B]
- isoenzyme selectivity by selectivity index (MAO-B) (recombinant human MAO-B): selectivity index on MAO-B
- IC50 (recombinant human MAO-B): 15.6 ± 0.26 µM
- Si MAO-B (recombinant human MAO-B; [1]): 0.6333
- % Inhibition of Aβ Aggregation (Aβ1-42; compound 100 µM): Not detected
- IC50 (recombinant human MAO-A; [2]): 40.21 ± 0.35 µM
- Si MAO-A (recombinant human MAO-A): 1.579

Compound: COc1c(O)cc2oc3cc(O)c(CC=C(C)C)c(O)c3c(=O)c2c1C/C=C(\C)CCC=C(C)C [Compound 5, cowanin]
- Si MAO-B (recombinant human MAO-B): 3.762
- IC50 (recombinant human MAO-B): 16.3 ± 1.44 µM
- % Inhibition of Aβ Aggregation (Aβ1-42; compound 100 µM): Not detected
- IC50 (recombinant human MAO-A): 7.1 ± 0.03 µM
- Si MAO-A (recombinant human MAO-A): 0.266

Compound: COc1c(O)cc2oc3cc4c(c(O)c3c(=O)c2c1C/C=C(\C)CCC=C(C)C)C=CC(C)(C)O4 [Compound 6, fuscaxanthone A]
- isoenzyme selectivity by selectivity index (MAO-B) (recombinant human MAO-B): selectivity index on MAO-B
- IC50 (recombinant human MAO-B): 0.07 ± 0.01 µM
- Si MAO-B (recombinant human MAO-B; [1]): 0.00179
- % Inhibition of Aβ Aggregation (Aβ1-42; compound 100 µM): Not detected
- IC50 (recombinant human MAO-A; [2]): 69.92 ± 0.06 µM
- Si MAO-A (recombinant human MAO-A): 558.273

Compound: COc1c(O)cc2oc3cc4occc4c(O)c3c(=O)c2c1C/C=C(\C)CCC=C(C)C [Compound 8, xanthochymusxanthone A]
- IC50 (recombinant human MAO-B): > 400 µM
- Si MAO-B (recombinant human MAO-B; [1]): 0.6522
- % Inhibition of Aβ Aggregation (Aβ1-42; compound 100 µM): Not detected.
- IC50 (recombinant human MAO-A; [2]): 100.5 ± 0.44 µM
- Si MAO-A (recombinant human MAO-A): <0.153

Compound: COc1c(O)c(CC=C(C)C)c2oc3cc(O)c(CC=C(C)C)c(O)c3c(=O)c2c1CC=C(C)C [Compound 9, 7-O-methylgarcinone E]
- isoenzyme selectivity by selectivity index (MAO-B) (recombinant human MAO-B): selectivity index on MAO-B
- IC50 (recombinant human MAO-B): 0.4 ± 0.01 µM
- Si MAO-B (recombinant human MAO-B; [1]): 0.0256
- % Inhibition of Aβ Aggregation (Aβ1-42; compound 100 µM): Not detected
- IC50 (recombinant human MAO-A; [2]): 25.4 ± 0.63 µM
- Si MAO-A (recombinant human MAO-A): 38.705

Compound: COc1c(O)c(CC=C(C)C)c2oc3cc(O)c(CC=C(C)C)c(O)c3c(=O)c2c1C/C=C(\C)CCC=C(C)C [Compound 10, cowagarcinone A]
- IC50 (recombinant human MAO-B): > 400 µM
- Si MAO-B (recombinant human MAO-B; [1]): 183.168
- % Inhibition of Aβ Aggregation (Aβ1-42; compound 100 µM): Not detected
- IC50 (recombinant human MAO-A; [2]): 3.58 ± 0.02 µM
- Si MAO-A (recombinant human MAO-A): <0.005

Compound: COc1cc(/C=C/C(=O)CC(=O)/C=C/c2ccc(O)c(OC)c2)ccc1O [Curcumin, reference compound]
- % Inhibition of Aβ Aggregation (Aβ1-42; positive control at 5 µM): 51.73 ± 2.89%
- percent of self-aggregation of Aβ-(1-42) (Aβ1-42; positive control at 5 µM): 48.27 ± 2.89%
